Calls of active or inactive are those of the source. No cut-off for these calls is given here.
Columns and labels:
[1] = tested on: THP-1; assay: Cytotoxicity against human THP1 cells after 96 hrs by CCK8 assay; assay type: cell-based; settings: THP-1, 96 h
[2] = tested on: HeLa; assay: Cytotoxic activity against human HeLa cells; assay type: cell-based
[3] = tested on: CCRF-CEM; assay: Cytotoxic activity against human CCRF-CEM cells; assay type: cell-based
[4] = tested on: HL-60; assay: Cytotoxic activity against human HL60 cells; assay type: cell-based
[5] = tested on: HeLa; assay: Cytostatic activity against human HeLa cells; assay type: cell-based
[6] = tested on: Hepatitis C virus; assay: Antiviral activity against Hepatitis C virus; assay type: functional, organism-based; settings: Hepacivirus hominis
[7] = tested on: HL-60; assay: Cytostatic activity against human HL60 cells; assay type: cell-based
[8] = tested on: CCRF-CEM; assay: Cytostatic activity against human CCRF-CEM cells; assay type: cell-based
[9] = tested on: dengue virus type 2; assay: Antiviral activity against Dengue virus 2 NGC infected in human HuH7-Ehr2 cells after 48 hrs by luciferase reporter gene assay; assay type: functional, organism-based; settings: Huh-7, 48 h
[10] = Cytotoxicity against human HepG2 cells after 96 hrs by CCK8 assay; assay type: cell-based

IC50 [9]	SMILES	IC50 [1]	Activity [2]	Activity [3]	Activity [4]	Activity [5]	Activity [6]	Activity [7]	Activity [8]	CC50 at 96 h [10]
0.976 µM	OC[C@H]1O[C@@H](n2c3ccc(Cl)cc3c3c(-c4cc5ccccc5o4)ncnc32)[C@H](O)[C@@H]1O	> 50 µM	Non-toxic	Non-toxic	Non-toxic	Non-toxic	inactive	Non-toxic	Non-toxic	> 50 µM
24.4 µM	OC[C@H]1O[C@@H](n2c3ccc(Cl)cc3c3c(-c4ccoc4)ncnc32)[C@H](O)[C@@H]1O	> 50 µM	Non-toxic	Non-toxic	Non-toxic	Non-toxic	inactive	Non-toxic	Non-toxic	> 50 µM
0.335 µM	OC[C@H]1O[C@@H](n2c3ccc(Cl)cc3c3c(-c4cccs4)ncnc32)[C@H](O)[C@@H]1O	45.9 µM	Non-toxic	Non-toxic	Non-toxic	Non-toxic	inactive	Non-toxic	Non-toxic	19.9 µM
32.1 µM	OC[C@H]1O[C@@H](n2c3ccc(-c4ccoc4)cc3c3c(-c4ccco4)ncnc32)[C@H](O)[C@@H]1O	45 µM	Non-toxic	Non-toxic	Non-toxic	Non-toxic	inactive	Non-toxic	Non-toxic	33.1 µM

Second part, the compound before the results:

SMILES	IC50 [9]	IC50 [1]	Activity [2]	Activity [3]	Activity [4]	Activity [5]	Activity [6]	Activity [7]	Activity [8]	CC50 at 96 h [10]
OC[C@H]1O[C@@H](n2c3ccc(Cl)cc3c3c(-c4ccsc4)ncnc32)[C@H](O)[C@@H]1O	87 µM	> 50 µM	Non-toxic	Non-toxic	Non-toxic	Non-toxic	inactive	Non-toxic	Non-toxic	> 50 µM
OC[C@H]1O[C@@H](n2c3ccccc3c3c(-c4ccco4)ncnc32)[C@H](O)[C@@H]1O	82.7 µM	> 50 µM	Non-toxic	Non-toxic	Non-toxic	Non-toxic	inactive	Non-toxic	Non-toxic	> 50 µM
OC[C@H]1O[C@@H](n2c3ccc(-c4ccccc4)cc3c3c(-c4ccco4)ncnc32)[C@H](O)[C@@H]1O	2.91 µM	41.3 µM	Non-toxic	Non-toxic	Non-toxic	Non-toxic	inactive	Non-toxic	Non-toxic	20.7 µM
OC[C@H]1O[C@@H](n2c3ccc(-c4ccco4)cc3c3c(-c4ccco4)ncnc32)[C@H](O)[C@@H]1O	17.9 µM	> 50 µM	Non-toxic	Non-toxic	Non-toxic	Non-toxic	inactive	Non-toxic	Non-toxic	7.44 µM
OC[C@H]1O[C@@H](n2c3ccc(Cl)cc3c3c(-c4ccccc4)ncnc32)[C@H](O)[C@@H]1O	26.4 µM	> 50 µM	Non-toxic	Non-toxic	Non-toxic	Non-toxic	inactive	Non-toxic	Non-toxic	> 50 µM
OC[C@H]1O[C@@H](n2c3ccc(Cl)cc3c3c(-c4ccco4)ncnc32)[C@H](O)[C@@H]1O	0.238 µM	1.56 µM	Non-toxic	Non-toxic	Non-toxic	Non-toxic	inactive	Non-toxic	Non-toxic	0.175 µM
